Laboratory results as given in patent publication US12599599B2, “Anti-inflammatory, anti-cancer, and anti-angiogenic compounds, pharmaceutical compositions, and methods of making and using thereof” (MEDICON PHARMACEUTICALS, INC., priority 2017, dated 2026).

What was measured:
[1] = system: SKOV-3 human ovarian cancer cells; test: Acridine orange staining by flow cytometry (autophagy); assay type: cell-based; details: after treatment; 4% before
Experimental: (§1) FIGS. 12A-12C and FIGS. 13A-13C illustrate key findings related to the mechanism of action of compound 5 against ovarian cancer. The studies shown here were performed in SKOV-3 human ovarian cancer cells. FIG. 12A: Left: Compound 5 increases the percentage of cells with acridine orange staining determined by flow cytometry (4% 4→38% after treatment with compound 5) and indicating the induction of autophagy. Right: Electron micrographs show morphological features of cells undergoing autophagy. Yellow arrowheads: vacuoles; white arrowheads: autophagosomes. […] N: nucleus; ER: endoplasmic reticulum with visible ribosomes. The left micrograph shown normal ER (circled) in a vehicle-treated cell. […] The latter finding is diagnostic of ER stress. Magnification: 6,800×. FIG. 12C: Compound 5 suppresses STAT3, mTOR and JNK activation by phosphorylation, as well as the levels of COT.

HEY-T30 xenografts = test: Synergy with cyclophosphamide, Taxol resistant subcutaneous xenografts; assay type: in vivo, nude mice; details: day 21; compound 5 10 mg/kg/day six days a week ip; cyclophosphamide 10 mg/kg six days a week orally; or both
SKOV-3 ovarian cancer = test: 24 hr growth inhibition of cell line; assay type: cell-based; details: Homo sapiens, SK-OV-3, 24 h
Experimental: The therapeutic efficacy of compounds 2, 5, and 6 was assessed in human and murine cell lines of varied tissue origin, and their 24 hr 50% inhibitory concentration was determined by following standard methodologies. Typical results are shown in the Table 5, indicating a broad anticancer effect.
Ovarian cancer cells were studied in greater detail using the following ovarian cancer cell lines: SKOV-3, OVCAR3, A2780 (and two cell lines derived from it, A2870cis that is resistant to cisplatin, and A2870ADR that is resistant to doxorubicin (Adriamycin)), and HEY (sensitive to paclitaxel (Taxol), and its derivative HEY-T30 that is Taxol-resistant). […]

[2] = Ocular pharmacokinetics and biodistribution after eye drops; assay type: in vivo, New Zealand rabbits; design: unit not given here; details: rabbit, 20% eye drops
Experimental: The pharmacokinetics and biodistribution of compounds 1, 2, and 5 in the eye of rabbits were determined. Each of these compounds was dissolved in phosphate buffered saline (PBS) and used as eye drops. The eye drops were sterilized before application to rabbits by filtration through a 0.2 μm membrane. […] The eyes were harvested and eye tissues and the lacrimal glands were dissected, homogenized and the test compounds were extracted by acetonitrile and analyzed by HPLC, as described under Compound Synthesis described herein. Compounds 1 and 2 were detected at 328 nm, and compound 5 at 260 nm. […] All three compounds can unexpectedly, readily, and rapidly reach the posterior chamber of the eye.

eIF2α = test: Phosphorylation in SKOV-3 cells (integrated stress response); assay type: cell-based, human
Excerpt: FIG. 13A: Compound 5 induces the phosphorylation of eIF2α, confirming integrated stress response. p-eIF2αinduces ATF4 that suppresses 5′-cap dependent translation initiation, shown below. […] The levels of reporter proteins used in the translation assay (Pierce™ Renilla-Firefly Luciferase Dual Assay Kit; Thermo Scientific, Grand Island, NY) were normalized to the levels of intracellular FLUC-RLUC transcripts and are shown as percent of untreated control cells. RLU=Relative light units. 5′-cap dependent translation initiation was much less and occurred later. Values: Mean±SEM; *, p<0.05 and **, p<0.01 vs. control. […] Loading controls: β-actin and GADPH.

STAT3 = test: Activation by phosphorylation in SKOV-3 cells; assay type: cell-based, human
Experimental: as §1

mTOR = test: Activation by phosphorylation in SKOV-3 cells; assay type: cell-based, human
Experimental: as §1

JNK = test: Activation by phosphorylation in SKOV-3 cells; assay type: cell-based, human
Experimental: as §1

[3] = system: chicken embryo chorioallantoic membrane; test: Chicken embryo chorioallantoic membrane assay; assay type: in vivo
[4] = system: SKOV-3 human ovarian cancer cells; test: Transmission electron microscopy, ER stress; assay type: cell-based; details: 1.5×IC50
Experimental: as §1

COT = test: Protein levels in SKOV-3 cells; assay type: cell-based, human
Experimental: as §1

A2780cis xenografts = test: Subcutaneous xenografts in nude mice, cisplatin resistant; assay type: in vivo; details: compound 5 15 mg/kg/day six days a week ip; cis-platinum 5.5 mg/kg one time a week ip
Experimental: Compound 6 was also efficacious against chemotherapy-resistant ovarian cancer. […] The effect of compound 6 in cisplatin resistant (A2780cis) and doxorubicin (Adriamycin) resistant (A2780ADR) tumors was studied. Briefly, each of these cell lines was subcutaneously inoculated into athymic nude mice and when the tumor size reached 100-200 mm^3, compound 6 150 mg/kg/day or its vehicle were given i.p. After 11 days of treatment, for the cisplatin-resistant tumors the tumor volume of the vehicle group was 2388±127 mm^3 and for compound 6 group 1032±108 mm^3 (mean±SEM; P<0.02); while for the doxorubicin-resistant tumors these values were: vehicle group=1369±337 mm^3 and compound 6 group=396±182 mm^3 (P<0.02).
To determine whether compound 5 is efficacious against chemotherapy-resistant ovarian cancer, three pairs of sensitive and resistant human ovarian cancer cell lines were grown as subcutaneous xenografts in nude mice and treated as summarized in FIG. 10. These cell lines were: A2780, sensitive to both cis-platinum and Adriamycin (doxorubicin); A2780cis, resistant to cis-platinum; A2780ADR, resistant to Adriamycin: HEY, sensitive to Taxol; HEY-T30, resistant to Taxol. The treatments administered were: vehicle control; compound 5, 15 mg/kg/day six days a week, ip; cis-platinum 5.5 mg/kg, one time a week ip; Adriamycin 3 mg/kg twice a week ip; and Taxol 20 mg/kg twice a week ip.

CCN(CC)CCCCNC(=O)c1ccccc1SC/C=C(\C)CC/C=C(\C)CCC=C(C)C [Compound 5]
percentage of cells with acridine orange staining [1]: 38% | inhibition of tumor growth compared to control (HEY-T30 xenografts): 26% | IC50 (SKOV-3 ovarian cancer): 9 µM | Drug level in Vitreous [2]: 0.0 | Drug level in Ciliary body ([2]; 40 min): 0.0 | Drug level in Conjunctiva ([2]; 40 min): 33.2 | Drug level in Cornea ([2]; 40 min): 75.7 | Drug level in Iris ([2]; 40 min): 0.6 | Drug level in Lens ([2]; 40 min): 0.0 | Drug level in Retina ([2]; 40 min): 1.8 | Drug level in Sclera ([2]; 40 min): 1.3 | Drug level in Ciliary body ([2]; 60 min): 4.2 | Drug level in Conjunctiva ([2]; 60 min): 35.1 | Drug level in Cornea ([2]; 60 min): 96.7 | Drug level in Iris ([2]; 60 min): 1.9 | Drug level in Lens ([2]; 60 min): 0.0 | Drug level in Retina ([2]; 60 min): 3.4 | Drug level in Sclera ([2]; 60 min): 0.6 | Drug level in Vitreous ([2]; 60 min): 0.0 | phosphorylation of eIF2α (eIF2α): induces | STAT3 activation by phosphorylation (STAT3): suppresses | mTOR activation by phosphorylation (mTOR): suppresses | JNK activation by phosphorylation (JNK): suppresses | new vessels after treatment ([3]; control 58±4.9 (compound 5), 42.6±8.2 (compound 6)): 46±2.1 | reduction of formation of new vessels ([3]; in vivo): 21% | endoplasmic reticulum (ER) stress [4]: induction of endoplasmic reticulum (ER) stress | levels of COT (COT): suppresses | growth of platinum-resistant xenografts (A2780cis xenografts): as efficacious as in the platinum sensitive xenografts
